Reference: patent US20250198442A1, “GAMMA POLYGLUTAMATED PEMETREXED AND USES THEREOF” (L.E.A.F. HOLDINGS GROUP LLC, priority 2020, published 2025)

How the values were obtained:
[1] = test system: NCI H2342 non-small cell lung cancer (NSCLC), adenocarcinoma subtype; assay: CellTiter-Glo cell viability dose response, NCI H2342; assay type: cell-based, human; settings: H2342, 48 hours of treatment, rank among test articles
Procedure: (§1) The CTG assay uses luciferase as a readout.
(§2) Luciferase luminescence were recorded for each well.

[2] = test system: HT-29 (colon cancer); assay: CellTiter-Glo cell viability dose response, HT-29; assay type: cell-based, human; settings: HT-29, 48 hours, rank among test articles
Procedure: as §1, §2

[3] = test system: AML12 liver cells; assay: Toxicity to AML12 liver cells; assay type: cell-based; settings: all doses studied (16 to 128 nM), 48 hours
Excerpt: (§3) Methodologies used for cell line AML12 (non-cancerous liver cells) and CCD841 (non-cancerous colon epithelial cells) are similar to the methods used for cancer cells.

[4] = test system: CCD841 colon epithelium cells; assay: Toxicity to CCD841 colon epithelium cells; assay type: cell-based; settings: 16 nM, 32 nM, 64 nM and 128 nM, 48 hours
Excerpt: as §3

Nc1nc(=O)c2c(CCc3ccc(C(=O)N[C@@H](CCC(=O)N[C@@H](CCC(=O)N[C@@H](CCC(=O)N[C@@H](CCC(=O)N[C@@H](CCC(=O)N[C@@H](CCC(=O)O)C(=O)O)C(=O)O)C(=O)O)C(=O)O)C(=O)O)C(=O)O)cc3)c[nH]c2[nH]1 [gG6, pemetrexed L-gamma hexaglutamate]
potency as measured by IC50 [1]: least potent
potency (cell viability) [2]: least potent

Nc1nc2[nH]cc(CCc3ccc(C(=O)N[C@@H](CCC(=O)O)C(=O)O)cc3)c2c(=O)[nH]1 [pemetrexed]
reduction in the AML12 liver cell counts [3]: approximately 40%
decrease in the number of CCD841 colon epithelium cells [4]: ≥ 50%
